According to patent US20110130374A1, “Small Pyrimidine Derivatives and Methods of Use Thereof” (BIOSEARCH(2007) LTD., priority 2009, published 2011):

Tests used:
A375 melanoma cells = test: Soft agar colony formation, A375 melanoma cells; assay type: cell-based; conditions: 14 days, MTT; for soft agar colony formation: A375 melanoma cells
Procedure: The assay was done using CYTOSELECT™ 96-Well In Vitro Tumor Sensitivity Assay kit from Cell Biolabs, Inc. (San-Diego, Calif.). The cells were grown for 14 days with RPMI and 10% FBS medium in the presence of the indicated concentration of Compound 1 (PRT7000467). The quantification of the colony formation on soft agar was done using MTT reagent after solubilization of the agar (all the materials are supplied in the kit). The IC50 value was calculated using Prism software.

A375 cells = test: Cell viability, WST-1 reagent, A375 cells grown in two-dimension; assay type: cell-based; conditions: WST-1, 72 h post treatment
Procedure: Compound 1 (PRT7000467), Compound 2 (PRT7041128), and Compound 3 (PRT7081582) are not toxic to cells grown in two-dimension. A375 cells were cultured with RPMI and 10% FBS. The cells were treated with different concentrations of Compound 1 (PRT7000467) and Compound 2 (PRT7041128), then the viability of the cells was determined seventy-two hours post treatment using WST-1 reagent (Roche) (FIG. 1B)

oxazolone-induced DTH = test: Oxazolone-induced delayed-type hypersensitivity (DTH), ear swelling; assay type: in vivo, BALB/c mice; conditions: oral, 1 hour before oxazolone challenge; compared with the control (FIG. 5)
Description: Anti inflammatory assay A delayed-type hypersensitivity (DTH) reaction is an expression of cell-mediated immunity and plays a major role in the pathology and chronicity of many inflammatory disorders. Delayed-type hypersensitivity (DTH) reactions can be induced by various allergens, including oxazolone, 2,4-dinitrofluorobenzene (DNFB) and sheep red blood cells (SRBCs). One of the most characteristic DTH phenomenons is contact hypersensitivity, which is characterized by swelling and by increased tissue levels of cytokines. Contact hypersensitivity (CHS) is a T cell-mediated immune reaction in response to cutaneous sensitization and challenge with reactive haptens that are capable of binding directly to soluble and cell-associated proteins and recognized by T cells in the context of self-MHC products. The cells that recognize antigen-protein complex in the skin are the Langerhans cells (LCs). […]
Ear swelling response will be determined by ear thickness measured with a micrometer before and 24 hours after oxazolone challenge and reported as the mean change in ear thickness (ΔT±S.E.M.). Percent suppression of ear swelling response will be calculated as % suppression=[1−(ΔT of sensitized mice exposed to experimental treatment/ΔT of sensitized mice exposed to vehicle treatment)]×100.

| SMILES | LD50 in the soft agar colony formation assay (A375 melanoma cells; A375 cells) | soft agar colony formation (A375 melanoma cells) | toxicity to cells grown in two-dimension (A375 cells) | anti-inflammatory activity (ear swelling response) (oxazolone-induced DTH) |
| --- | --- | --- | --- | --- |
| Cc1cc(C)nc(NS(=O)(=O)c2ccc(NC(=O)/C(=C\c3cccs3)NC(=O)c3cccs3)cc2)n1 [Compound 1] | 2.8 to 5.6 µM | inhibits soft agar colony formation | not toxic | same anti-inflammatory activity as the control |
| Cc1cc(S(=O)(=O)Nc2ncccn2)ccc1NC(=O)/C(=C\c1cccs1)NC(=O)c1cccs1 [Compound 3] | – | inhibit soft agar colony formation | not toxic | same anti-inflammatory activity as the control |
